“Also recorded” adds a separate entry of the source.
What was measured:
[1] = system: KRAS-mutant lung cancer cell lines; experiment: Clonogenic assay; format: cell-based, human; settings: for sensitization to trametinib (MEK inhibition) in combination: combined with trametinib, KRAS-mutant lung cancer cell lines
Procedure: All experiments were performed at least three times. Representative experiments are shown.

[2] = system: BRAF and KRAS-mutant cancers of multiple lineages; settings: GDSC dataset; BRAF-mutant compared with KRAS-mutant tumor cells; cited from earlier work

CCN1CCN(c2ccc(Nc3cc(N(C)C(=O)Nc4c(Cl)c(OC)cc(OC)c4Cl)ncn3)cc2)CC1 [BGJ398]
sensitization to trametinib (MEK inhibition) in combination [1]: comparable effects; also recorded: confer sensitivity to MEK inhibition

COCC(=O)NC/C=C/c1ccc2ncnc(Nc3ccc(Oc4ccc(C)nc4)c(C)c3)c2c1 [CP724714]
synergy when combined with Trametinib ([1]; H23 cells, combined with Trametinib): no synergy

O=C(NOC[C@H](O)CO)c1ccc(F)c(F)c1Nc1ccc(I)cc1F [PD0325901]
sensitivity to MEK inhibitor (IC50), BRAF-mutant versus KRAS-mutant tumor cells [2]: significantly more sensitive

COc1cc(F)c(F)c(Nc2ccc(I)cc2F)c1NS(=O)(=O)C1(C[C@H](O)CO)CC1 [RDEA119]
sensitivity to MEK inhibitor (IC50), BRAF-mutant versus KRAS-mutant tumor cells [2]: significantly more sensitive

O=C(Nc1ccc2[nH]nc(-c3ccncc3)c2c1)[C@@H]1CCN(CC(=O)N2CCN(c3ccc(-c4ncccn4)cc3)CC2)C1 [SCH772984]
effect of co-treatment on antiproliferative effects of Trametinib ([1]; co-treatment with Trametinib compared with Trametinib alone): enhances the antiproliferative effects of trametinib

AZD4547
sensitization to trametinib (MEK inhibition) in combination [1]: comparable effects; also recorded: confer sensitivity to MEK inhibition
